Values quoted from earlier work in patent US11541018B2 (priority 2016, dated 2023).

Experiments:
[1] = active agent (base)
[2] = active agent (base); remark: listed apart in the source

Water solubility [1]: 133 mg/mL
LogP [2]: 2.7
Substance: ropinole
